Laboratory results from article PMC11589570, “Critical assessment of LC3/GABARAP ligands used for degrader development and ligandability of LC3/GABARAP binding pockets” (Nature Communications, 2024).
“And” between values parts separate entries of the source, which are not always exact repeats. Equal entries are not always repeated.

Key:
LC3A = LC3A (Homo sapiens, UniProt Q9H492); experiment: FP assay with Cy5-labelled p62 LIR tracer (protein titration and tracer displacement); type: binding; conditions: LC3A tracer displacement, normalized on p62-LIR positive control
RPE1 cells = experiment: Cell growth assay (IncuCyte confluence over 72 h); type: cell-based
Method: (§1) Cell growth assay: Cell confluence (phase) from RPE1 (hTERT RPE-1, ATCC CLR_4000) or U2OS (ATCC, HTB-96) cell lines were monitored over time with the IncuCyte S3 (Sartiorius, Germany) in 384-well plates in 50 ul DMEM media, supplemented with 10% Fetal Bovine Serum (FBS) 1% penicillin/Streptomycin and incubated 24 h before treatment. Experiment was performed as described in Cano-Franco et al.. 50 μl of media containing either 2× final concentration of indicated compounds in or control compounds (final conc.: 0.1% DMSO, 250 nM Torin1, 200 ng/mL Bafilomycin) were added and images were taken every two hours over 72 h. Cell confluence is represented as % of area covered by cells. Each data point represents the average ratio or confluence obtained from three individual wells of the plate.

U2OS cells = experiment: Cell growth assay (IncuCyte confluence over 72 h); type: cell-based; parameters: key to U2OS cell growth: % of well area covered by cells (confluence)
Method: as §1, with “50 μl of media containing either 2× final concentration of indicated compounds in or control compounds (final conc.: 0.1% DMSO, 250 nM Torin1, 200 ng/mL Bafilomycin) were added and images were taken every two hours over 72 h.” left out

CCCCCCC(Sc1nc(Cl)cc(Nc2nc(-c3ccc([N+](=O)[O-])cc3)cs2)n1)C(=O)O (stereo not drawn) [TH056]
% tracer bound @LC3A (LC3A): 61%

CCCCCCC(Sc1nc(Cl)cc(Nc2nc(-c3ccc(C(F)(F)F)cc3)cs2)n1)C(=O)O (stereo not drawn) [TH084]
% tracer bound @LC3A (LC3A): 76%

O=C1CC(c2ccc(Cl)c(Cl)c2)CC(=O)C1=CNCCN1CCNCC1 (stereo not drawn) [Cov-3]
RPE1 cell growth (RPE1 cells; 100 nM, 0 h): 12 and 21 and 11 | RPE1 cell growth (RPE1 cells; 100 nM, 2 h): 14 and 25 and 13 | RPE1 cell growth (RPE1 cells; 100 nM, 6 h): 19 and 28 and 14 | RPE1 cell growth (RPE1 cells; 100 nM, 12 h): 20 and 32 and 17 | RPE1 cell growth (RPE1 cells; 500 nM, 0 h): 15 and 23 and 13 | RPE1 cell growth (RPE1 cells; 500 nM, 2 h): 16 and 27 and 14 | RPE1 cell growth (RPE1 cells; 500 nM, 6 h): 20 and 32 and 17 | RPE1 cell growth (RPE1 cells; 500 nM, 10 h): 21 and 34 and 17 | RPE1 cell growth (RPE1 cells; 500 nM, 12 h): 23 and 35 and 18 | RPE1 cell growth (RPE1 cells; 1 uM, 0 h): 13 and 24 | RPE1 cell growth (RPE1 cells; 1 uM, 8 h): 16 and 20 and 31 | RPE1 cell growth (RPE1 cells; 1 uM, 10 h): 17 and 18 and 32 | RPE1 cell growth (RPE1 cells; 1 uM, 12 h): 18 and 19 and 34 | RPE1 cell growth (RPE1 cells; 3 uM, 0 h): 16 and 20 and 13 | RPE1 cell growth (RPE1 cells; 3 uM, 2 h): 21 and 23 and 14 | RPE1 cell growth (RPE1 cells; 3 uM, 4 h): 23 and 26 and 14 | RPE1 cell growth (RPE1 cells; 3 uM, 6 h): 24 and 27 and 16 | RPE1 cell growth (RPE1 cells; 3 uM, 8 h): 24 and 29 and 17 | RPE1 cell growth (RPE1 cells; 3 uM, 10 h): 23 and 29 and 18 | RPE1 cell growth (RPE1 cells; 3 uM, 12 h): 26 and 31 and 20 | RPE1 cell growth (RPE1 cells; 5 uM, 0 h): 16 and 20 and 13 | RPE1 cell growth (RPE1 cells; 5 uM, 2 h): 20 and 24 and 15 | RPE1 cell growth (RPE1 cells; 5 uM, 4 h): 22 and 26 and 15 | RPE1 cell growth (RPE1 cells; 5 uM, 6 h): 23 and 28 and 18 | RPE1 cell growth (RPE1 cells; 5 uM, 8 h): 24 and 30 and 18 | RPE1 cell growth (RPE1 cells; 5 uM, 10 h): 22 and 29 and 19 | RPE1 cell growth (RPE1 cells; 5 uM, 12 h): 23 and 32 and 20 | RPE1 cell growth (RPE1 cells; 10 uM, 0 h): 16 and 20 and 13 | RPE1 cell growth (RPE1 cells; 10 uM, 2 h): 19 and 23 and 17 | RPE1 cell growth (RPE1 cells; 10 uM, 4 h): 22 and 25 and 18 | RPE1 cell growth (RPE1 cells; 10 uM, 6 h): 22 and 29 and 20 | RPE1 cell growth (RPE1 cells; 10 uM, 8 h): 24 and 31 and 21 | RPE1 cell growth (RPE1 cells; 10 uM, 10 h): 23 and 30 | RPE1 cell growth (RPE1 cells; 10 uM, 12 h): 26 and 32 and 23 | U2OS cell growth (U2OS cells; 100 nM, time 10 h): 33.6743 and 37.4722 and 28.8223 | U2OS cell growth (U2OS cells; 100 nM, time 0 h): 14.5416 and 22.9345 and 12.3076 | U2OS cell growth (U2OS cells; 100 nM, time 2 h): 20.4728 and 24.9456 and 18.1328 | U2OS cell growth (U2OS cells; 100 nM, time 4 h): 32.466 and 35.1005 and 23.9495 | U2OS cell growth (U2OS cells; 100 nM, time 6 h): 27.7123 and 37.9082 and 23.0201 | U2OS cell growth (U2OS cells; 100 nM, time 8 h): 36.178 and 29.1087 and 28.1634 | U2OS cell growth (U2OS cells; 500 nM, time 0 h): 19.4597 and 15.6761 and 23.7515 | U2OS cell growth (U2OS cells; 500 nM, time 2 h): 17.2401 and 19.2948 and 26.8842 | U2OS cell growth (U2OS cells; 500 nM, time 4 h): 23.0548 and 20.6729 and 33.4847 | U2OS cell growth (U2OS cells; 500 nM, time 6 h): 31.9275 and 22.0748 and 27.2708 | U2OS cell growth (U2OS cells; 500 nM, time 8 h): 20.0458 and 23.4357 and 28.1267 | U2OS cell growth (U2OS cells; 1 uM, time 10 h): 29.6152 | U2OS cell growth (U2OS cells; 1 uM, time 0 h): 18.8183 and 26.6645 and 23.9984 | U2OS cell growth (U2OS cells; 1 uM, time 2 h): 21.0614 and 26.8371 and 29.3905 | U2OS cell growth (U2OS cells; 1 uM, time 4 h): 24.6352 and 31.1306 and 32.3496 | U2OS cell growth (U2OS cells; 1 uM, time 6 h): 26.5224 and 36.4121 and 30.4909 | U2OS cell growth (U2OS cells; 1 uM, time 8 h): 20.3314 and 37.2236 and 29.7059 | U2OS cell growth (U2OS cells; 3 uM, time 0 h): 36.1248 and 21.9705 and 35.4647 | U2OS cell growth (U2OS cells; 3 uM, time 2 h): 38.4423 and 25.3153 and 30.1014 | U2OS cell growth (U2OS cells; 3 uM, time 4 h): 41.4594 and 31.6601 and 38.4044 | U2OS cell growth (U2OS cells; 3 uM, time 6 h): 35.1153 and 23.5308 and 36.0085 | U2OS cell growth (U2OS cells; 3 uM, time 8 h): 37.1896 and 25.2973 and 34.3262 | U2OS cell growth (U2OS cells; 5 uM, time 10 h): 45.8479 and 32.8378 and 36.0561 | U2OS cell growth (U2OS cells; 5 uM, time 0 h): 35.0072 and 29.5152 and 28.3077 | U2OS cell growth (U2OS cells; 5 uM, time 2 h): 34.3656 and 30.4257 and 30.1228 | U2OS cell growth (U2OS cells; 5 uM, time 4 h): 36.9905 and 31.4377 and 28.9247 | U2OS cell growth (U2OS cells; 5 uM, time 6 h): 42.578 and 38.6163 and 31.6899 | U2OS cell growth (U2OS cells; 5 uM, time 8 h): 38.0361 and 32.4495 and 27.1279 | U2OS cell growth (U2OS cells; 10 uM, time 10 h): 36.2219 and 24.7441 and 23.9347 | U2OS cell growth (U2OS cells; 10 uM, time 0 h): 31.5761 and 18.5024 and 22.4964 | U2OS cell growth (U2OS cells; 10 uM, time 2 h): 30.3213 and 20.7145 and 20.7242 | U2OS cell growth (U2OS cells; 10 uM, time 4 h): 34.613 and 22.1736 and 25.1322 | U2OS cell growth (U2OS cells; 10 uM, time 6 h): 35.028 and 21.2307 and 23.3926 | U2OS cell growth (U2OS cells; 10 uM, time 8 h): 32.1571 and 22.7698 and 18.9042

CCCCCCC(Sc1nc(Cl)cc(Nc2nc(-c3ccc(Br)cc3)c(C)s2)n1)C(=O)O (stereo not drawn) [TH057]
% tracer bound @LC3A (LC3A): 94%

CCCCCCC(Sc1nc2ccc(NCc3ccccc3)cc2s1)C(=O)O (stereo not drawn) [TH195]
% tracer bound @LC3A (LC3A): 78%

CCCCCCC(Sc1nc(Cl)cc(Nc2nc(-c3ccc(Cl)cc3)cs2)n1)C(=O)O (stereo not drawn) [TH018]
% tracer bound @LC3A (LC3A): 81%

CN(Cc1ccccc1)C(=O)c1ccc(S(=O)(=O)Nc2ccccc2)cc1 [TH676]
% tracer bound @LC3A (LC3A): 84%

CCC(Sc1nc(Cl)cc(Nc2nc(-c3ccc4ccccc4c3)cs2)n1)C(=O)O (stereo not drawn) [TH107]
% tracer bound @LC3A (LC3A): 82%

Cc1ccc(NS(=O)(=O)c2ccc(C(=O)N(C)Cc3ccccc3)cc2)cc1 [TH281]
% tracer bound @LC3A (LC3A): 95%

CCCCCCC(Sc1nc(Cl)cc(Nc2nc(-c3ccc(Cl)c(Cl)c3)cs2)n1)C(=O)O (stereo not drawn) [TH083]
% tracer bound @LC3A (LC3A): 84%

CCCCCCC(Sc1nc2ccc(NCc3ccc4ccccc4c3)cc2s1)C(=O)O (stereo not drawn) [TH191]
% tracer bound @LC3A (LC3A): 78%

CCCCCCC(Sc1nc2ccc(NCc3ccc(C(C)(C)C)cc3)cc2s1)C(=O)O (stereo not drawn) [TH185]
% tracer bound @LC3A (LC3A): 82%

CCCCC(Sc1nc2ccc(NC(=O)c3ccc(C(C)(C)C)cc3)cc2s1)C(=O)O (stereo not drawn) [TH188]
% tracer bound @LC3A (LC3A): 89%

CCCCCCC(Sc1nc(Cl)cc(Nc2nc(-c3ccc(Br)cc3)cs2)n1)C(=O)O (stereo not drawn) [TH026]
% tracer bound @LC3A (LC3A): 79%

CCCCCCC(Sc1nc(Cl)cc(Nc2nc(-c3ccc4ccccc4c3)cs2)n1)C(=O)O (stereo not drawn) [TH034]
% tracer bound @LC3A (LC3A): 79%

CCCCCCC(Sc1nc(Cl)cc(Nc2nc(C34CC5CC(CC(C5)C3)C4)cs2)n1)C(=O)O (stereo not drawn) [TH105]
% tracer bound @LC3A (LC3A): 84%

CCCCCCC(Sc1nc(Cl)cc(Nc2nc(-c3ccc(OC)cc3)cs2)n1)C(=O)O (stereo not drawn) [TH121]
% tracer bound @LC3A (LC3A): 83%
